Measured values from patent publication US10100058B2, “Fused heterocyclic compounds as CaM kinase inhibitors” (Gilead Sciences, Inc., priority 2016, dated 2018).

biological target: recombinant CaMKIIδ (Homo sapiens (Human), UniProt Q13557); assay: CaMKIIδ biochemical assay (HTRF); conditions: 10 pM CaMKIIδ, 110 nM calmodulin, 12 μM ATP, 1 hour; read-out: CAMKIID-HTRF-384V2 (IC50 - nM)
Description: CaMKIIδ Biochemical Assay
The biochemical activity of recombinant CaMKIIδ was measured by monitoring the phosphorylation of a target peptide using Homogenous Time Resolved Fluorescence (HTRF) technology from CisBio Bioassays.

Row | Structure (SMILES) | IC50 [nM]
1 | C[C@@H](CNC(=O)c1ccnc(-c2cnn3ccc(-c4cccs4)nc23)c1)NCCO [Example 21, (S)—N-(2-((2-hydroxyethyl)amino)propyl)-2-(5-(thiophen-2-yl)pyrazolo[1,5-a]pyrimidin-3-yl)isonicotinamide] | 27.8
2 | C[C@@H]1CNCCN1C(=O)c1ccnc(-c2cnn3ccc(-c4cccs4)nc23)c1 [Example 84, (R)-(2-methylpiperazin-1-yl)(2-(5-(thiophen-2-yl)pyrazolo[1,5-a]pyrimidin-3-yl)pyridin-4-yl)methanone] | 17.5
3 | CCN(CC)[C@@H](C)CNC(=O)c1cc(OCc2ccc[n+]([O-])c2)nc(-c2cnn3ccc(-c4cccs4)nc23)c1 [Example 355, (S)-3-(((4-((2-(diethylamino)propyl)carbamoyl)-6-(5-(thiophen-2-yl)pyrazolo[1,5-a]pyrimidin-3-yl)pyridin-2-yl)oxy)methyl)pyridine 1-oxide] | 0.54
4 | O=C(c1cc(-c2cnn3ccc(-c4cccs4)nc23)nc(N2CCN(C3COC3)CC2)c1)N1CC2CCC(C1)NC2 (centres unmarked) [Example 324, (-3,6-diazabicyclo[3.2.2]nonan-3-yl)(2-(4-(oxetan-3-yl)piperazin-1-yl)-6-(5-(thiophen-2-yl)pyrazolo[1,5-a]pyrimidin-3-yl)pyridin-4-yl)methanone] | 3.59
5 | COC1CN(c2cc(C(=O)NC[C@@H]3CCCN3)cc(-c3cnn4ccc(-c5cccs5)nc34)n2)C1 [Example 255, (S)-2-(3-methoxyazetidin-1-yl)-N-(pyrrolidin-2-ylmethyl)-6-(5-(thiophen-2-yl)pyrazolo[1,5-a]pyrimidin-3-yl)isonicotinamide] | 33.9
6 | CCN(CC)[C@@H](C)CNC(=O)c1cc(-c2cnn3ccc(-c4cccs4)nc23)nc(N2CC[C@H]2C(=O)N(C)O)c1 [Example 298, N—((S)-2-(diethylamino)propyl)-2-((S)-2-(hydroxy(methyl)carbamoyl)azetidin-1-yl)-6-(5-(thiophen-2-yl)pyrazolo[1,5-a]pyrimidin-3-yl)isonicotinamide] | 0.23
7 | CCN1CCC[C@H]1CNC(=O)c1cc(-c2cnn3ccc(-c4cccs4)nc23)nc(N2CC(OC)C2)c1 [Example 256, (S)—N-((1-ethylpyrrolidin-2-yl)methyl)-2-(3-methoxyazetidin-1-yl)-6-(5-(thiophen-2-yl)pyrazolo[1,5-a]pyrimidin-3-yl)isonicotinamide] | 2.42
8 | CNC(=O)[C@@H]1CCN1c1cc(C(=O)NC[C@H](C)N)cc(-c2cnn3ccc(-c4cccs4)nc23)n1 [Example 305, N—((S)-2-aminopropyl)-2-((S)-2-(methylcarbamoyl)azetidin-1-yl)-6-(5-(thiophen-2-yl)pyrazolo[1,5-a]pyrimidin-3-yl)isonicotinamide] | 51.7
9 | C[C@@H](CNC(=O)c1ccnc(-c2cnn3ccc(-c4cccs4)nc23)c1)NCCF [Example 24, (S)—N-(2-((2-fluoroethyl)amino)propyl)-2-(5-(thiophen-2-yl)pyrazolo[1,5-a]pyrimidin-3-yl)isonicotinamide] | 7.88
10 | CCN(CC)[C@@H](C)CNC(=O)c1cc(-c2cnn3ccc(-c4cccs4)nc23)nc(N2CC[C@H]2C(=O)NCC(F)(F)F)c1 [Example 283, N—((S)-2-(diethylamino)propyl)-2-(5-(thiophen-2-yl)pyrazolo[1,5-a]pyrimidin-3-yl)-6-((S)-2-((2,2,2-trifluoroethyl)carbamoyl)azetidin-1-yl)isonicotinamide] | 1.37
11 | CCN(CC)[C@@H](C)CNC(=O)c1cc(-c2cn[nH]c2)nc(-c2cnn3ccc(-c4cccs4)nc23)c1 [Example 340, (S)—N-(2-(diethylamino)propyl)-2-(1H-pyrazol-4-yl)-6-(5-(thiophen-2-yl)pyrazolo[1,5-a]pyrimidin-3-yl)isonicotinamide] | 0.05
12 | CCN(CC)[C@@H](C)CNC(=O)c1cc(N[C@@H](C)C(=O)NC)nc(-c2cnn3ccc(-c4cccs4)nc23)c1 [Example 240, N—((S)-2-(diethylamino)propyl)-2-(((S)-1-(methylamino)-1-oxopropan-2-yl)amino)-6-(5-(thiophen-2-yl)pyrazolo[1,5-a]pyrimidin-3-yl)isonicotinamide] | 1.07
13 | C[C@@H](CNC(=O)c1ccnc(-c2cnn3ccc(-c4cccs4)nc23)c1)NCC(F)F [Example 14, (S)—N-(2-((2,2-difluoroethyl)amino)propyl)-2-(5-(thiophen-2-yl)pyrazolo[1,5-a]pyrimidin-3-yl)isonicotinamide] | 23.8

Further compounds by falling IC50, results first:

Row | IC50 [nM] | Structure (SMILES)
14 | 27.7 | CC[C@]1(CNC(=O)c2ccnc(-c3cnn4ccc(-c5ccccc5)nc34)c2)CCCN1 [Example 43, (R)—N-((2-ethylpyrrolidin-2-yl)methyl)-2-(5-phenylpyrazolo[1,5-a]pyrimidin-3-yl)isonicotinamide]
15 | 9.44 | NCC1CC(F)(F)CN1C(=O)c1ccnc(-c2cnn3ccc(-c4cccs4)nc23)c1 (stereo in doubt) [Example 78, (S)-(2-(aminomethyl)-4,4-difluoropyrrolidin-1-yl)(2-(5-(thiophen-2-yl)pyrazolo[1,5-a]pyrimidin-3-yl)pyridin-4-yl)methanone]
16 | 7.47 | CC(C)C[C@@]1(CNC(=O)c2ccnc(-c3cnn4ccc(-c5cccs5)nc34)c2)CCCN1 [Example 17, (R)—N-((2-isobutylpyrrolidin-2-yl)methyl)-2-(5-(thiophen-2-yl)pyrazolo[1,5-a]pyrimidin-3-yl)isonicotinamide]
17 | 1.91 | CCN(CC)[C@@H](C)CNC(=O)c1cc(-c2cnn3ccc(-c4cccs4)nc23)nc(N2CCC[C@H]2C(N)=O)c1 [Example 270, 2-((S)-2-carbamoylpyrrolidin-1-yl)-N—((S)-2-(diethylamino)propyl)-6-(5-(thiophen-2-yl)pyrazolo[1,5-a]pyrimidin-3-yl)isonicotinamide]
18 | 1.71 | CCN(CC)c1cc(C(=O)NC[C@H](C)N(CC)CC)cc(-c2cnn3ccc(-c4cccs4)nc23)n1 [Example 260, (S)-2-(diethylamino)-N-(2-(diethylamino)propyl)-6-(5-(thiophen-2-yl)pyrazolo[1,5-a]pyrimidin-3-yl)isonicotinamide]
19 | 0.31 | CCN(CC)[C@@H](C)CNC(=O)c1cc(-c2cnn3ccc(-c4cccs4)nc23)nc(N2CCC[C@H]2CO)c1 [Example 271, N—((S)-2-(diethylamino)propyl)-2-((S)-2-(hydroxymethyl)pyrrolidin-1-yl)-6-(5-(thiophen-2-yl)pyrazolo[1,5-a]pyrimidin-3-yl)isonicotinamide]
20 | 0.28 | CCN(CC)[C@@H](C)CNC(=O)c1cc(-c2cnn3ccc(-c4cccs4)nc23)nc(N2CCC(F)(F)C2)c1 [Example 232, (S)—N-(2-(diethylamino)propyl)-2-(3,3-difluoropyrrolidin-1-yl)-6-(5-(thiophen-2-yl)pyrazolo[1,5-a]pyrimidin-3-yl)isonicotinamide]
21 | 0.28 | CCN(CC)[C@@H](C)CNC(=O)c1cc(-c2cnn3ccc(-c4cccs4)nc23)nc(N2CC(NC(=O)N(C)C)C2)c1 [Example 195, (S)—N-(2-(diethylamino)propyl)-2-(3-(3,3-dimethylureido)azetidin-1-yl)-6-(5-(thiophen-2-yl)pyrazolo[1,5-a]pyrimidin-3-yl)isonicotinamide]
22 | 0.22 | CCN(CC)[C@@H](C)CNC(=O)c1cc(-c2cnn3ccc(-c4cccs4)nc23)nc(N2CC[C@H]2C(N)=O)c1 [Example 299, 2-((S)-2-carbamoylazetidin-1-yl)-N—((S)-2-(diethylamino)propyl)-6-(5-(thiophen-2-yl)pyrazolo[1,5-a]pyrimidin-3-yl)isonicotinamide]
23 | 0.18 | CCN(CC)[C@@H](C)CNC(=O)c1cc(N[C@H]2CCOC2)nc(-c2cnn3ccc(-c4cccs4)nc23)c1 [Example 203, N—((S)-2-(diethylamino)propyl)-2-(((S)-tetrahydrofuran-3-yl)amino)-6-(5-(thiophen-2-yl)pyrazolo[1,5-a]pyrimidin-3-yl)isonicotinamide]
24 | 0.18 | CCN(CC)[C@@H](C)CNC(=O)c1cc(-c2cnn3ccc(-c4cccs4)nc23)nc(N2CC(O)(C3CC3)C2)c1 [Example 217, (S)-2-(3-cyclopropyl-3-hydroxyazetidin-1-yl)-N-(2-(diethylamino)propyl)-6-(5-(thiophen-2-yl)pyrazolo[1,5-a]pyrimidin-3-yl)isonicotinamide]
25 | 0.17 | CCN(CC)[C@@H](C)CNC(=O)c1cc(NC2CCOCC2)nc(-c2cnn3ccc(-c4cccs4)nc23)c1 [Example 222, (S)—N-(2-(diethylamino)propyl)-2-((tetrahydro-2H-pyran-4-yl)amino)-6-(5-(thiophen-2-yl)pyrazolo[1,5-a]pyrimidin-3-yl)isonicotinamide]
26 | 0.15 | CCN(CC)[C@@H](C)CNC(=O)c1cc(-c2cnn3ccc(-c4ccc(F)s4)nc23)nc(N2CC[C@H]2C(=O)NC)c1 [Example 361, N—((S)-2-(diethylamino)propyl)-2-(5-(5-fluorothiophen-2-yl)pyrazolo[1,5-a]pyrimidin-3-yl)-6-((S)-2-(methylcarbamoyl)azetidin-1-yl)isonicotinamide]
27 | 0.14 | CCN(CC)[C@@H](C)CNC(=O)c1cc(OC)nc(-c2cnn3ccc(-c4cccs4)nc23)c1 [Example 112, (S)—N-(2-(diethylamino)propyl)-2-methoxy-6-(5-(thiophen-2-yl)pyrazolo[1,5-a]pyrimidin-3-yl)isonicotinamide]
28 | 0.11 | CCN(CC)[C@@H](C)CNC(=O)c1cc(NC[C@H](C)O)nc(-c2cnn3ccc(-c4cccs4)nc23)c1 [Example 201, N—((S)-2-(diethylamino)propyl)-2-(((S)-2-hydroxypropyl)amino)-6-(5-(thiophen-2-yl)pyrazolo[1,5-a]pyrimidin-3-yl)isonicotinamide]
29 | 0.07 | CCN(CC)[C@@H](C)CNC(=O)c1cc(-c2cnn3ccc(-c4cccs4)nc23)nc(N2CC[C@H](N)C2)c1 [Example 317, 2-((S)-3-aminopyrrolidin-1-yl)-N—((S)-2-(diethylamino)propyl)-6-(5-(thiophen-2-yl)pyrazolo[1,5-a]pyrimidin-3-yl)isonicotinamide]
